Assay results published in the supplement of paper PMC10307832.

Assays:
Assay in all cases: relative viability (nuclei count vs DMSO), 5 days (fraction); higher = more cells survive
Irinotecan + Crizotinib = compound: CCc1c2c(nc3ccc(OC(=O)N4CCC(N5CCCCC5)CC4)cc13)-c1cc3c(c(=O)n1C2)COC(=O)[C@]3(O)CC [Irinotecan] + C[C@@H](Oc1cc(-c2cnn(C3CCNCC3)c2)cnc1N)c1c(Cl)ccc(F)c1Cl [Crizotinib] (partner 1 µM)
How it was run: (§1)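 Five library-drug doses in √10 steps were combined with a fixed anchor-drug dose, or a single drug was given alone, by pin tool to lung cancer cell lines in 1536-well plates the day after seeding. Nuclei were stained and counted after 5 days. Relative viability is the nuclei count in treated wells over that in vehicle wells, taken as the median of duplicate plates.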

Irinotecan + Decitabine = compound: CCc1c2c(nc3ccc(OC(=O)N4CCC(N5CCCCC5)CC4)cc13)-c1cc3c(c(=O)n1C2)COC(=O)[C@]3(O)CC [Irinotecan] + Nc1ncn([C@H]2C[C@H](O)[C@@H](CO)O2)c(=O)n1 [Decitabine] (partner 2 µM)
How it was run: as §1

Irinotecan + Vorinostat = compound: CCc1c2c(nc3ccc(OC(=O)N4CCC(N5CCCCC5)CC4)cc13)-c1cc3c(c(=O)n1C2)COC(=O)[C@]3(O)CC [Irinotecan] + O=C(CCCCCCC(=O)Nc1ccccc1)NO [Vorinostat] (partner 1 µM)
How it was run: as §1

MK-8033 + Vorinostat = compound: Cn1cc(-c2cnc3ccc4ccc(CS(=O)(=O)NCc5ccccn5)cc4c(=O)c3c2)cn1 [MK-8033] + O=C(CCCCCCC(=O)Nc1ccccc1)NO [Vorinostat] (partner 1 µM)
How it was run: as §1

Row | Cell Line | relative viability (Irinotecan + Crizotinib; first compound 2 µM) | relative viability (Irinotecan + Crizotinib; first compound 6.325 µM) | relative viability (Irinotecan + Crizotinib; first compound 20 µM) | relative viability (Irinotecan + Decitabine; first compound 2 µM) | relative viability (Irinotecan + Decitabine; first compound 6.325 µM) | relative viability (Irinotecan + Decitabine; first compound 20 µM) | relative viability (Irinotecan + Vorinostat; first compound 2 µM) | relative viability (Irinotecan + Vorinostat; first compound 6.325 µM) | relative viability (Irinotecan + Vorinostat; first compound 20 µM) | relative viability (MK-8033 + Vorinostat; first compound 0.02 µM) | relative viability (MK-8033 + Vorinostat; first compound 0.06325 µM) | relative viability (MK-8033 + Vorinostat; first compound 0.2 µM) | relative viability (MK-8033 + Vorinostat; first compound 0.6325 µM) | relative viability (MK-8033 + Vorinostat; first compound 2 µM) | relative viability (Irinotecan + Crizotinib; first compound 0.6325 µM) | relative viability (Irinotecan + Decitabine; first compound 0.6325 µM) | relative viability (Irinotecan + Vorinostat; first compound 0.6325 µM)
1 | ABC-1 | 0.785 | 0.297 | 0.154 | 0.851 | 0.515 | 0.475 | 0.566 | 0.405 | 0.348 | 1.24 | 0.931 | 0.928 | 1.04 | 0.975 |  |  | 
2 | HCC-44 | 0.491 | 0.27 | 0.273 | 0.913 | 0.677 | 0.512 | 0.839 | 0.451 | 0.461 | 1.06 | 1.14 | 1.09 | 1.2 | 1.07 | 0.578 | 0.87 | 0.998
3 | HCC-15 | 0.319 | 0.158 | 0.18 | 0.45 | 0.381 | 0.14 | 0.333 | 0.252 | 0.197 | 0.898 | 0.767 | 0.752 | 0.738 | 0.798 | 0.479 | 0.363 | 0.452
4 | SK-LU-1 | 0.572 | 0.474 | 0.463 | 0.504 | 0.423 | 0.25 | 0.431 | 0.45 | 0.313 | 0.829 | 0.897 | 0.704 | 0.778 | 0.685 | 0.404 | 0.498 | 0.435
5 | H3255 | 0.539 | 0.383 | 0.251 | 0.456 | 0.266 | 0.225 | 0.782 | 0.343 | 0.311 | 0.847 |  | 0.768 | 0.81 | 0.742 | 0.741 |  | 
6 | NCI-H1666 | 0.464 | 0.47 | 0.357 | 0.62 | 0.547 | 0.545 | 0.706 | 0.788 | 0.631 | 1.04 | 1.01 | 1.01 | 1.09 | 1.04 | 0.617 | 0.551 | 0.849
7 | 201T | 0.888 | 0.52 | 0.388 | 0.615 | 0.295 | 0.298 | 0.81 | 0.426 | 0.28 | 0.956 | 0.926 | 0.791 | 0.949 | 0.962 |  | 0.714 | 0.325
8 | LK-2 | 0.248 | 0.303 | 0.301 | 0.379 | 0.226 | 0.216 | 0.264 | 0.256 | 0.242 | 0.245 | 0.259 | 0.397 | 0.307 | 0.357 | 0.206 | 0.285 | 0.363
9 | NCI-H1755 | 0.497 | 0.332 | 0.451 | 0.503 | 0.427 | 0.491 | 0.7 | 0.448 | 0.385 | 0.748 | 0.791 | 0.75 | 0.678 | 0.766 | 0.712 | 0.58 | 0.606
10 | LOU-NH91 | 0.658 | 0.368 | 0.36 | 0.768 | 0.492 | 0.311 | 0.875 | 0.315 | 0.147 | 0.923 | 0.638 | 0.835 | 0.86 | 0.92 | 0.718 | 0.79 | 0.837
11 | NCI-H1975 | 1 | 0.401 | 0.329 | 0.438 | 0.342 | 0.141 | 0.708 | 0.378 | 0.269 | 0.713 | 0.669 | 0.634 | 0.695 | 0.752 | 0.914 | 0.374 | 0.714
12 | NCI-H650 | 0.436 | 0.258 | 0.235 | 0.213 | 0.168 | 0.091 | 0.303 | 0.134 | 0.203 | 0.512 | 0.5 | 0.496 | 0.428 | 0.371 | 0.543 | 0.246 | 0.329
13 | SW 1573 | 0.43 | 0.189 | 0.197 | 0.511 | 0.173 | 0.0927 | 0.605 | 0.209 | 0.0706 | 0.836 | 0.681 | 0.7 | 0.729 | 0.667 | 0.626 | 0.445 | 
14 | NCI-H441 | 0.314 | 0.257 | 0.286 | 0.166 | 0.227 | 0.324 | 0.305 | 0.233 | 0.197 | 0.795 | 0.738 | 0.823 | 0.706 | 0.732 | 0.577 | 0.208 | 0.443
15 | NCI-H1944 | 0.323 | 0.231 | 0.254 | 0.206 | 0.149 | 0.151 | 0.36 | 0.223 | 0.166 | 0.6 | 0.579 | 0.625 | 0.59 | 0.568 | 0.561 | 0.323 | 0.386
16 | NCI-H838 | 0.679 | 0.365 | 0.276 | 0.47 | 0.277 | 0.18 | 0.703 | 0.378 | 0.301 | 0.765 | 0.67 | 0.674 | 0.736 | 0.734 | 0.769 | 0.444 | 0.776
17 | NCI-H661 | 0.842 |  | 0.517 | 0.546 | 0.424 | 0.168 | 0.49 | 0.344 | 0.252 | 0.785 | 0.71 | 0.793 | 0.761 | 0.767 | 0.923 | 0.532 | 0.688
